# Assay results: article PMC7613620, “Reaction hijacking of tyrosine tRNA synthetase as a whole-of-life-cycle antimalarial strategy” (Science (New York, N.Y.), 2022)
# Where two headings read alike, the source gives them in different places.
# What was measured:
# [1] = target: T1, HsYRS (Homo sapiens, UniProt P54577); assay: Tyrosine acylation of cognate tRNATyr by HsYRS; assay type: biochemical; conditions: YRS 0.25 μM, ATP 10 μM, 37°C 1 h
# T1 construct: made in house; host or cells: E. coli BL21(DE3), pET-11a
# T1 sequence (P54577 1-364): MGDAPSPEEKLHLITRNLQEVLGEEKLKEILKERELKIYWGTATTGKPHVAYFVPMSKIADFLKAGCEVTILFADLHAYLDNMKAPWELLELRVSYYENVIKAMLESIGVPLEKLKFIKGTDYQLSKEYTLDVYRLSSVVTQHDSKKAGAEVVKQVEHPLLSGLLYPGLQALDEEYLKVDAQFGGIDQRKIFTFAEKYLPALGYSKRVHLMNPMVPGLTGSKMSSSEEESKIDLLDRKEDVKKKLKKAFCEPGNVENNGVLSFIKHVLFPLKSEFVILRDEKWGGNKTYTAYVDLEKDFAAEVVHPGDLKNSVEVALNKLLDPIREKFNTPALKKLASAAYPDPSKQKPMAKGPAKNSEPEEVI
# [2] = target: PfYRS (Plasmodium falciparum, UniProt Q8IAR7); assay: ATP consumption by PfYRS (Kinase-Glo); assay type: biochemical
# Procedure: 804 An intron was detected in the PftRNATyr sequence, that was not indicated in PlasmoDB. A T7 RNA
# 805 polymerase promoter sequence was added to the 5’ end of the DNA sequence of P. falciparum and H.
# 806 sapiens tRNATyr. This DNA template and its complementary strand were custom-synthesized by Sigma-
# 807 Aldrich. Two oligonucleotides were annealed at 95°C for 5 min and the double-stranded DNA template
# 808 was used for in vitro transcription. The transcription reaction was incubated at 37°C overnight. The reaction
# 809 mixture consists of template DNA, T7 RNA polymerase and NTP mix as per manufacturer's instructions
# 810 (HiScribe™ T7 Quick High Yield RNA Synthesis Kit, NEB). On the following day, the reaction mixture
# 811 was treated with DNase I at 37°C for 15 min. tRNA was purified using RNA clean-up spin columns
# 812 (Monarch® RNA Cleanup Kit, NEB) to remove contaminants from the transcription reaction. […]
# 820 was sealed and analysed using StepOnePlus Real-Time PCR system (Applied Biosystems). […]
# 822 as the first derivative curve of the raw fluorescence values. […]
# 824 values were calculated from DTm using the equation: ln(KD/[L]) = -131.5 x (∆Tm/Tm,apo) - 1.9, where [L] […]
# 828 Consumption of ATP by YRS was measured using a luciferase-based assay as per the manufacturer’s […]
# 836 The aminoacylation activity of YRS was measured by the incorporation of tritiated L-tyrosine into tRNATyr […]
# [3] = system: P. falciparum Dd2 PfYRSS234C mutant lines; assay: 72-h sensitivity of CRISPR-edited PfYRSS234C clones; assay type: cell-based, Plasmodium falciparum; conditions: for IC50: Plasmodium falciparum, DD2, 72 h, 72-h exposure
# Procedure: 700 the drug plate. Lowest drug treatment and a lethal dose of chloroquine (200 nM) served as reference
# 701 controls. Growth inhibition was analysed after 72 h using the Renilla-Glo(R) Luciferase Assay System (ref
# 702 no E2750 Promega) and the GloMax® Discover Multimode Microplate Reader (Promega), and IC50 values
# 703 were obtained from corrected dose-response curves using GraphPad Prism (version 8; GraphPad Software).
# 705 Generation of PfYRSS234C transfectants
# 706 CRISPR/Cas9 was used to generate parasites encoding the S234C mutation in exon 2 of PfYRS, as shown
# 707 in Suppl Figure 6. Two guide RNAs (gRNA1: […] and gRNA2:
# 708 […]) were selected using Benchling (benchling.com), and cloned into the
# 709 pDC2-coCas9-gRNA plasmid essentially as described previously (58). A donor template of 645 bp,
# 710 encompassing the majority of the 708 bp exon 2, was synthesized (ThermoFisher) and cloned into the
# 711 AatII/EcoRI sites of both the pDC2-coCas9-gRNA1 and pDC2-coCas9-gRNA2 plasmids. In addition to
# 712 the TCC>TGC (S234C) mutation, additional silent shield mutations were introduced to prevent gRNA-
# 713 Cas9 complex binding, as shown in Suppl Figure 6. Ring-stage P. falciparum parasites (Dd2 strain) at 10%
# 714 parasitemia (150 µL of packed cells) were transfected with 50 µg of plasmid DNA using a BioRad Gene
# 715 Pulser II (310 V, 950 µF), and selected with 5 nM WR99210 (Jacobus Pharmaceuticals) for 8 days, after
# 716 which culture was continued without drug pressure until transfectants were obtained. Clones of the
# 717 PfYRSS234C mutant parasites were isolated by limiting dilution and verified by Sanger sequencing. […]
# 729 Cam 3.II_Rev (25) trophozoite-infected RBCs (25-30 h p.i.) were incubated with inhibitor for 3 h at 10%
# 730 hematocrit and 5% parasitemia. The RBC pellet was washed 3 x in PBS + cOmplete. Cells were centrifuged
# 731 at 380 x g for 5 min and the pelleted cells lysed by resuspension in PBS + 0.05% saponin for 5 min on ice.
# PfYRS, sequence (Q8IAR7 entry or part of it): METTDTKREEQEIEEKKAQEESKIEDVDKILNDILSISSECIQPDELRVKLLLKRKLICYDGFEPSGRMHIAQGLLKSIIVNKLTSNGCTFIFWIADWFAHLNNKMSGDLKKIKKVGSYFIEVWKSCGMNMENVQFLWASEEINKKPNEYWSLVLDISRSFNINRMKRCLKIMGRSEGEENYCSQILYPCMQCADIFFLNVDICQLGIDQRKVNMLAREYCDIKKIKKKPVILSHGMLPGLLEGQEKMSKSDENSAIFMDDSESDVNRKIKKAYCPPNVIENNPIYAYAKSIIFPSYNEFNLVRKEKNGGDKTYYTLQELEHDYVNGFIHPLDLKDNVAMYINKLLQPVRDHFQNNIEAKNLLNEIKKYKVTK
smiles,measurement,setting,value
Nc1ncnc2c1c(OC(F)F)nn2[C@@H]1O[C@H](COS(N)(=O)=O)[C@@H](O)[C@H]1O [ML901],IC50,[1],> 500 µM
same,IC50,"[2]; in the absence of cognate tRNATyr, read-out: IC50 (-PftRNATyr), ATP consumption by PfYRS",> 500 µM
same,IC50,"[2]; in the presence of cognate tRNATyr, read-out: IC50 (+PftRNATyr), ATP consumption by PfYRS",25 µM
same,decreased sensitivity of PfYRSS234C transfectants,[3]; Dd2 parent transfectants harboring PfYRSS234C,10 fold
same,IC50,[3]; Mutant E12 (PfYRSS234C),22 ± 1 nM
same,IC50,[3]; Mutant F5 (PfYRSS234C),22 ± 3 nM
same,IC50,[3]; Mutant G12 (PfYRSS234C),20 ± 1 nM
